Here are results for 13 compounds from patent publication US8772307B2, “Substituted spiro compounds and their use for producing pain-relief medicaments” (Gruenenthal GmbH, priority 2005, dated 2014).

Molecules are shown by their SMILES.

In assay [1] the target is T1, vanilloid receptor (VR1) (Homo sapiens, UniProt Q8NER1).
T1 construct: expressed in transfected cells; host or cells: CHO K1 cells (ECACC), stably transfected
Put plainly: Functional testing on vanilloid receptor (VR1): FLIPR Ca2+ inflow assay in CHO K1 cells stably transfected with the VR1 gene. The format is cell-based. The settings on record: for inhibition at 10 µM: CHO-K1, inhibition compared to 10 μM CP (capsaicin); for activation at 10 µM: CHO-K1, stimulation compared to 10 μM CP (capsaicin). From the text:
II. Functional Testing Carried Out on the Vanilloid Receptor (VR1)
The agonistic or antagonistic effect of the substances to be tested can also be determined on the vanilloid receptor (VR1) using the following assay. According to this assay, the Ca^2+ inflow is quantified through the channel using a Ca^2+-sensitive dye (type Fluo-4, Molecular Probes Europe BV, Leiden, Netherlands) in a fluorescent imaging plate reader (FLIPR, Molecular Devices, Sunnyvale, USA).
Chinese hamster ovary cells (CHO K1 cells, European Collection of Cell Cultures (ECACC) United Kingdom) were stably transfected with the VR1 gene. For functional testing, these cells were plated out on poly-D-lysine-coated black 96 well plates having a clear base (BD Biosciences, Heidelberg, Germany) at a density of 25,000 cells/well. The cells were incubated overnight at 37° C. and 5% CO2 in a culture medium (Ham's F12 nutrient mixture, 10% by volume of FCS (foetal calf serum), 18 μg/ml L-proline). The next day the cells were incubated with Fluo-4 (Fluo-4 2 μM, 0.01% by volume of Pluronic F127, Molecular Probes in HBSS (Hank's buffered saline solution), Gibco Invitrogen GmbH, Karlsruhe, Germany) for 30 minutes at 37° C. Subsequently, the plates were washed 3 times with HBSS buffer and after further incubation for 15 minutes at room temperature used for Ca^2+ measurement in a FLIPR assay. The Ca^2+-dependent fluorescence was measured before and after the addition of the substances to be tested (λex wavelength=488 nm, λem=540 nm). Quantification was carried out by measuring the highest fluorescence intensity (FC, Fluorescence Counts) over time.
The FLIPR protocol consists of 2 substance additions. First the compounds to be tested (10 μM) were pipetted onto the cells and the Ca^2+ inflow was compared with the control (capsaicin 10 μM) (% activation based on the Ca^2+ signal after the addition of 10 μM capsaicin). After 5 minutes' incubation, 100 nM of capsaicin were administered and the Ca^2+ inflow was also determined.
Desensitising agonists and antagonists led to suppression of the Ca^2+ inflow. The % inhibition was calculated compared to the maximum achievable inhibition with 10 μM of capsaicin.

Assay [2] concerns the target T2, rat-species vanilloid receptor 1 (VR1/TRPV1) (Rattus norvegicus, UniProt O35433).
T2 construct: endogenous in cells; host or cells: primary cells dissociated from rat dorsal root ganglia (DRG)
Put plainly: Functional testing on vanilloid receptor 1 (VR1/TRPV1): FLIPR Ca2+ inflow assay in rat dorsal root ganglia cells (% activation / % inhibition vs capsaicin). The format is cell-based. The settings on record: for inhibition at 10 µM: inhibition compared to 10 μM CP (capsaicin); for activation at 10 µM: stimulation compared to 10 μM CP (capsaicin). As for the experimental part:
Preference may also be given to substituted spiro compounds according to the invention of general formula I which in a FLIPR assay in a concentration of 10 μM display inhibition of the Ca^2+ ion inflow in dorsal root ganglia of rats of at least 30%, preferably of at least 40%, particularly preferably of at least 50%, most particularly preferably of at least 70%, even more preferably of at least 90%, compared to the maximum achievable inhibition of the Ca^2+ ion inflow with capsaicin in a concentration of 10 μM.
In the FLIPR assay, the Ca^2+ inflow is quantified using a Ca^2+-sensitive dye (type Fluo-4, Molecular Probes Europe BV, Leiden, Netherlands) in a fluorescent imaging plate reader (FLIPR, Molecular Devices, Sunnyvale, USA), as described hereinafter.
I. Functional Testing Carried Out on the Vanilloid Receptor 1 (VR1/TRPV1 Receptor)
The agonistic or antagonistic effect of the substances to be tested can be determined on the rat-species vanilloid receptor 1 (VR1/TRPV1) using the following assay. According to this assay, the Ca^2+ inflow is quantified through the receptor channel using a Ca^2+-sensitive dye (type Fluo-4, Molecular Probes Europe BV, Leiden, Netherlands) in a fluorescent imaging plate reader (FLIPR, Molecular Devices, Sunnyvale, USA).
Complete medium: 50 mL HAMS F12 nutrient mixture (Gibco Invitrogen GmbH, Karlsruhe, Germany) with
10% by volume of FCS (foetal calf serum, Gibco Invitrogen GmbH, Karlsruhe, Germany, […]);
2 mM L-glutamine (Sigma, Munich, Germany);
1% by weight of AA solution (antibiotic/antimyotic solution, PAA, Pasching, Austria)
and 25 ng/ml NGF medium (2.5 S, Gibco Invitrogen GmbH, Karlsruhe, Germany)
Cell culture plate: Poly-D-lysine-coated, black 96 well plates having a clear base (96 well black/clear plate, BD Biosciences, Heidelberg, Germany) were additionally coated with laminin (Gibco Invitrogen GmbH, Karlsruhe, Germany), the laminin being diluted with PBS (Ca—Mg-free PBS, Gibco Invitrogen GmbH, Karlsruhe, Germany) to a concentration of 100 μg/mL. Aliquots having a laminin concentration of 100 μg/mL were removed and stored at −20° C. The aliquots were diluted with PBS in a ratio of 1:10 to 10 μg/mL laminin and in each case 50 μL of the solution were pipetted into a recess in the cell culture plate. The cell culture plates were incubated for at least two hours at 37° C., the excess solution was removed by suction-filtration and the recesses were each washed twice with PBS. The coated cell culture plates were stored with excess PBS which was not removed until just before the feeding of the cells.
Preparation of the Cells:
The vertebral column was removed from decapitated rats and placed immediately into cold HBSS buffer (Hank's buffered saline solution, Gibco Invitrogen GmbH, Karlsruhe, Germany), i.e. buffer located in an ice bath, mixed with 1% by volume (percent by volume) of an AA solution (antibiotic/antimyotic solution, PAA, Pasching, Austria). The vertebral column was cut longitudinally and removed together with fasciae from the vertebral canal. Subsequently, the dorsal root ganglia (DRG) were removed and again stored in cold HBSS buffer mixed with 1% by volume of an AA solution. The DRG, from which all blood remnants and spinal nerves had been removed, were transferred in each case to 500 μL of cold type 2 collagenase (PAA, Pasching, Austria) and incubated for 35 minutes at 37° C. After the addition of 2.5% by volume of trypsin (PAA, Pasching, Austria), incubation was continued for 10 minutes at 37° C. After complete incubation, the enzyme solution was carefully pipetted off and 500 μL of complete medium were added to each of the remaining DRG. The DRG were in each case suspended several times, drawn through cannulae No. 1, No. 12 and No. 16 using a syringe and transferred to a 50 mL Falcon tube which was filled up to 15 mL with complete medium. […]

T2 sequence (O35433 whole entry): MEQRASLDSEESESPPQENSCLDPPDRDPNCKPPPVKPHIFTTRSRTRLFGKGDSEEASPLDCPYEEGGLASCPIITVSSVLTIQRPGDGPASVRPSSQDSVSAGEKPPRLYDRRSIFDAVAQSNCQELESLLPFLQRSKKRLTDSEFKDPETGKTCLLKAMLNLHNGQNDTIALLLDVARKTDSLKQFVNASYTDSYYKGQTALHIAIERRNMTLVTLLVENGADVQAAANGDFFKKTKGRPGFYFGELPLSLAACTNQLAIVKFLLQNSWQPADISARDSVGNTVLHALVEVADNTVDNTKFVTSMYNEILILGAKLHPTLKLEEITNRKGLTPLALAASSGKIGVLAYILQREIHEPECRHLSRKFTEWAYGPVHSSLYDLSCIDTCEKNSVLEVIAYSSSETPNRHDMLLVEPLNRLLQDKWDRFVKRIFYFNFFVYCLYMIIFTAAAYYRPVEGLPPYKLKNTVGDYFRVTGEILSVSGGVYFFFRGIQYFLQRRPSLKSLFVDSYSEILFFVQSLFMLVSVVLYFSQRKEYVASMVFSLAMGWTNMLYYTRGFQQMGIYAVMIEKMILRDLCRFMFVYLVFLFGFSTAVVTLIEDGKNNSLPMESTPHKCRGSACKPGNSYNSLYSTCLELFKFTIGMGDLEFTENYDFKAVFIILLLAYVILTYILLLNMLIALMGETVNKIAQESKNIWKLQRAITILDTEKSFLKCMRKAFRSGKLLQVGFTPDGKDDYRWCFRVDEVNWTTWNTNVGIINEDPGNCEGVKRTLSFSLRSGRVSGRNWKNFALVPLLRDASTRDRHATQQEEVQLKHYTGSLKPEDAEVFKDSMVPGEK
T1 sequence (Q8NER1 whole entry): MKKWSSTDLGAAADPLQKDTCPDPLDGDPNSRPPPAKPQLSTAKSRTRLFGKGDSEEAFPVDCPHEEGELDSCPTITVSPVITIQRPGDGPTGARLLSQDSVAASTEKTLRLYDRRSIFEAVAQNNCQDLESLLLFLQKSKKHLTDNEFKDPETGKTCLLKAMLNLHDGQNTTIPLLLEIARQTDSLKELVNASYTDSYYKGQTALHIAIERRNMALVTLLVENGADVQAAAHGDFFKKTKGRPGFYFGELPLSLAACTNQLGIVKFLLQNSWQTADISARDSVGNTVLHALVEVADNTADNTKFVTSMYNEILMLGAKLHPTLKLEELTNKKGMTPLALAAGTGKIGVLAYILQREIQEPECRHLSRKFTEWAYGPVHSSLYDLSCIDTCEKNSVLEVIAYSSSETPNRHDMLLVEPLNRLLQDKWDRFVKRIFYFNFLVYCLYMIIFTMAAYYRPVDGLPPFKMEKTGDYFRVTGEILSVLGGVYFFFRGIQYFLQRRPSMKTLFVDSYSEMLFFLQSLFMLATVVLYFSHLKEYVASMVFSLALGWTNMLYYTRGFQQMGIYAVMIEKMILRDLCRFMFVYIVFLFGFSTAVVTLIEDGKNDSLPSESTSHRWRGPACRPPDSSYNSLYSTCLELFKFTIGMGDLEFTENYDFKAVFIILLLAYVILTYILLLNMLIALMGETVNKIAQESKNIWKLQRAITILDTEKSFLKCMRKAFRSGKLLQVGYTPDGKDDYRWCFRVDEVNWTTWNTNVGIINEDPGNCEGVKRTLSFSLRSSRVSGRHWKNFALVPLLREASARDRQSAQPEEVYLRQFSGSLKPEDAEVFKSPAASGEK

A word on the inhibition: it is the drop in the measured response relative to a control, in per cent. Take `CC(C)c1ccc(NC(=O)N2CCC3(CC2)CC(c2ccc(Cl)cc2)=NO3)cc1` [Compound 79, 3-(4-chlorophenyl)-1-oxa-2,8-diazaspiro[4.5]dec-2-ene-8-carboxylic acid-(4-isopropylphenyl)amide]: the inhibition at 10 µM in assay [1] is -17.6%; in assay [2], 46.5%. In addition, the activation at 10 µM in assay [1] was -0.35%; in assay [2], 0.38%.
The like results for `CC(C)c1ccc(NC(=O)N2CCC3(CC2)CC(c2ccc(C(C)(C)C)cc2)=NO3)cc1` [Compound 80, 3-(4-tert-butylphenyl)-1-oxa-2,8-diazaspiro[4.5]dec-2-ene-8-carboxylic acid-(4-isopropylphenyl)amide] were, in that order, 3.6%, 62.1%, 0.89% and -0.47%.
In the same order, the values of `Cc1ccc(C2=NOC3(CCN(C(=O)Nc4ccc(C(C)C)cc4)CC3)C2)cc1` [Compound 81, 3-p-tolyl-1-oxa-2,8-diazaspiro[4.5]dec-2-ene-8-carboxylic acid-(4-isopropylphenyl)amide] are -2.79%, 58.8%, -0.35% and -0.47%.
With `O=C(Nc1cccc(C(F)(F)F)c1)N1CCC2(CC1)CC(c1ccccc1)=NO2` [Compound 90, 3-phenyl-1-oxa-2,8-diazaspiro[4.5]dec-2-ene-8-carboxylic acid-(3-trifluoromethylphenyl)amide], the figures for the inhibition at 10 µM in assay [1] and in assay [2] were -7.62% and 55.9%, respectively. Besides, the activation at 10 µM was -0.15% in assay [1] and -0.47% in assay [2].
For the compound `O=C(Nc1ccccc1Oc1ccccc1)N1CCC2(CC1)CC(c1ccc(C(F)(F)F)cc1)=NO2` [Compound 103, 3-(4-trifluoromethylphenyl)-1-oxa-2,8-diazaspiro[4.5]dec-2-ene-8-carboxylic acid-(2-phenoxyphenyl)amide], the inhibition at 10 µM in assay [1] amounted to 8.28%; in assay [2] it was 50.9%. Also, the activation at 10 µM in assay [1] was -0.35%; in assay [2] it was -0.47%.
In the same order, the values of `COc1cccc(C2=NOC3(CCN(C(=O)NCCc4ccccc4)CC3)C2)c1` [Compound 122, 3-(3-methoxyphenyl)-1-oxa-2,8-diazaspiro[4.5]dec-2-ene-8-carboxylic acid phenethylamide] are -13.1%, 49.2%, 0.07% and -0.47%.
For the compound `COc1cccc(C2=NOC3(CCN(C(=O)Nc4ccc(C(C)(C)C)cc4)CC3)C2)c1` [Compound 140, 3-(3-methoxyphenyl)-1-oxa-2,8-diazaspiro[4.5]dec-2-ene-8-carboxylic acid-(4-tert-butylphenyl)amide], in assay [1], the inhibition at 10 µM is 9.67% and the activation at 10 µM amounted to 9.37%. Further, in assay [2], the inhibition at 10 µM worked out at 99.2% and the activation at 10 µM was determined as 1.4%.
By IC50 is commonly meant the concentration at which inhibition is half-maximal. Higher therefore signals weaker potency in that assay. Turning to `CC(C)(C)c1ccc(NC(=O)N2CCC3(CC2)CC(c2ccccc2)=NO3)cc1` [Compound 141, 3-phenyl-1-oxa-2,8-diazaspiro[4.5]dec-2-ene-8-carboxylic acid-(4-tert-butylphenyl)amide], in assay [1], the inhibition at 10 µM is 20.4% and the activation at 10 µM was -0.3%. In addition, in assay [2] (capsaicin (CAP) stimulus, average), the IC50 was 78 nM. Also, in assay [2], the inhibition at 10 µM amounted to 98.5% and the activation at 10 µM was 0.42%.
`CC(C)(C)c1ccc(NC(=O)N2CCC3(CC2)CC(c2ccc(Cl)cc2)=NO3)cc1` [Compound 142, 3-(4-chlorophenyl)-1-oxa-2,8-diazaspiro[4.5]dec-2-ene-8-carboxylic acid-(4-tert-butylphenyl)amide]: in assay [1], the inhibition at 10 µM was -18.8% and the activation at 10 µM was -0.07%. Also, in assay [2], the inhibition at 10 µM is 63% and the activation at 10 µM is -0.2%.
The like results for `CC(C)(C)c1ccc(NC(=O)N2CCC3(CC2)CC(c2ccc(C(C)(C)C)cc2)=NO3)cc1` [Compound 143, 3-(4-tert-butylphenyl)-1-oxa-2,8-diazaspiro[4.5]dec-2-ene-8-carboxylic acid-(4-tert-butylphenyl)amide] were, in that order, -7.17%, 4.12%, 45.7% and -0.33%.
For `Cc1ccc(C2=NOC3(CCN(C(=O)Nc4ccc(C(C)(C)C)cc4)CC3)C2)cc1` [Compound 144, 3-p-tolyl-1-oxa-2,8-diazaspiro[4.5]dec-2-ene-8-carboxylic acid-(4-tert-butylphenyl)amide], in assay [1], the inhibition at 10 µM was -16.6% and the activation at 10 µM was -0.18%. For the same compound, in assay [2], the inhibition at 10 µM worked out at 94.5% and the activation at 10 µM is -0.43%.
On to `CC(C)(C)c1ccc(NC(=O)N2CCC3(CC2)CC(c2ccc(C(F)(F)F)cc2)=NO3)cc1` [Compound 145, 3-(4-trifluoromethylphenyl)-1-oxa-2,8-diazaspiro[4.5]dec-2-ene-8-carboxylic acid-(4-tert-butylphenyl)amide], for which, in assay [1], the inhibition at 10 µM was 4.26% and the activation at 10 µM was determined as 2.49%. Also, in assay [2], the inhibition at 10 µM worked out at 59.9% and the activation at 10 µM was -0.2%.
The like results for `COc1cccc(C2=NOC3(CCN(C(=O)Nc4ccc(C)cc4)CC3)C2)c1` [Compound 146, 3-(3-methoxyphenyl)-1-oxa-2,8-diazaspiro[4.5]dec-2-ene-8-carboxylic acid p-tolylamide] were, in that order, 9.95%, 0.29%, 58% and -0.13%.
